Each molecule was assayed against T1, human V1a receptor (Homo sapiens, UniProt P37288) (assay: human V1a receptor binding studies (3H-Vasopressin, SPA beads)). Conditions: membranes of HEK293 cells transiently transfected with human V1a receptor, Ki by Cheng-Prussoff from IC50, read-out: pKi hV1a (converted).
T1 construct: expressed in transfected cells; host or cells: HEK293 cells, transiently transfected; cell membranes
T1 sequence (P37288 whole entry): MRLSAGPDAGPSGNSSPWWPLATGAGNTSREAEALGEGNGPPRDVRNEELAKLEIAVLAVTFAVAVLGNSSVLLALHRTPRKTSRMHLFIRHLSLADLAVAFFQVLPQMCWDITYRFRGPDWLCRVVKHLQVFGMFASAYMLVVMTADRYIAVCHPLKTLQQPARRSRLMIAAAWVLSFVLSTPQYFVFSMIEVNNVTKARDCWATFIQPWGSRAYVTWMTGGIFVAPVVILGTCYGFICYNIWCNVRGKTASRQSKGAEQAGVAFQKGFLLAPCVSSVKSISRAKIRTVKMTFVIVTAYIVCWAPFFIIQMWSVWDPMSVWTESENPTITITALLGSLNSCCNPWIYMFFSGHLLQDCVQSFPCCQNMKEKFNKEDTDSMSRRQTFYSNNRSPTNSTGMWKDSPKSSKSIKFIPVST
Experimental: The human V1a receptor was cloned by RT-PCR from total human liver RNA. The coding sequence was subcloned in an expression vector after sequencing to confirm the identity of the amplified sequence. […] Cell membranes were prepared from HEK293 cells transiently transfected with the expression vector and grown in 20 liter fermenters with the following protocol.
50 g of cells are re-suspended in 30 ml freshly prepared ice cold Lysis buffer (50 mM HEPES, 1 mM EDTA, 10 mM MgCl2 adjusted to pH=7.4+complete cocktail of protease inhibitor (Roche Diagnostics)). Homogenized with Polytron for 1 min and sonicated on ice for 2×2 minutes at 80% intensity (Vibracell sonicator). The preparation is centrifuged 20 min at 500 g at 4° C., the pellet is discarded and the supernatant centrifuged 1 hour at 43′000 g at 4° C. (19′000 rpm). The pellet is re-suspended in 12.5 ml Lysis buffer+12.5 ml Sucrose 20% and homogenized using a Polytron for 1-2 min. The protein concentration is determined by the Bradford method and aliquots are stored at −80° C. until use. For binding studies 60 mg Yttrium silicate SPA beads (Amersham) are mixed with an aliquot of membrane in binding buffer (50 mM Tris, 120 mM NaCl, 5 mM KCl, 2 mM CaCl2, 10 mM MgCl2) for 15 minutes with mixing. 50 μl of bead/membrane mixture is then added to each well of a 96 well plate, followed by 50 μl of 4 nM 3H-Vasopressin (American Radiolabeled Chemicals). For total binding measurement 100 μl of binding buffer are added to the respective wells, for non-specific binding 100 μl of […] cold vasopressin and for compound testing 100 μl of a serial dilution of each compound in 2% DMSO. The plate is incubated 1 h at room temperature, centrifuged 1 min at 1000 g and counted on a Packard Top-Count. Non-specific binding counts are subtracted from each well and data is normalized to the maximum specific binding set at 100%. To calculate an IC 50 the curve is fitted using a non-linear regression model (XLfit) and the Ki is calculated using the Cheng-Prussoff equation.
CC(c1ccccc1)C1(C)OC(N2CCC3(CC2)OCc2ccccc23)=NC1=O (single isomer, unassigned; diastereomer b) [Example 107, 5-Methyl-5-(1-phenylethyl)-2-(1′H,3H-spiro[2-benzofuran-1,4′-piperidin]-1′-yl)-1,3-oxazol-4(5H)-one diastereomer b] was tested, and the Ki was 10 nM.
CC(c1ccccc1)C1(C)OC(N2CCC3(CC2)OCc2ccccc23)=NC1=O (single isomer, unassigned; diastereomer b) [Example 110, (−)-5-Methyl-5-(1-phenylethyl)-2-(1′H,3H-spiro[2-benzofuran-1,4′-piperidin]-1′-yl)-1,3-oxazol-4(5H)-one diastereomer b] gave a Ki of 6.31 nM.
With CC(c1ccccc1)C1(C)OC(N2CCC3(CC2)OCc2ccccc23)=NC1=O (single isomer, unassigned; diastereomer b) [Example 111, (+)-5-Methyl-5-(1-phenylethyl)-2-(1′H,3H-spiro[2-benzofuran-1,4′-piperidin]-1′-yl)-1,3-oxazol-4(5H)-one diastereomer b] the Ki was 251 nM.
For CC(=O)O[C@H]1CC2(C[C@H]1OC(C)=O)OC(N1CCC3(CC1)OCc1ccccc13)=NC2=O (single isomer, unassigned; diastereomer b) [Example 121, 4-Oxo-2-(1′H,3H-spiro[2-benzofuran-1,4′-piperidin]-1′-yl)-1-oxa-3-azaspiro[4.4]non-2-ene-7,8-diyl diacetate diastereomer b], the Ki was 6.31 nM.
Work on CCCCCC1CCC2(CC1)OC(N1CCC3(CC1)OC(=O)c1ccccc13)=NC2=O (single isomer, unassigned; diastereomer b) [Example 127, 1′-[4-Oxo-8-pentyl-1-oxa-3-azaspiro[4.5]dec-2-en-2-yl]-3H-spiro[2-benzofuran-1,4′-piperidin]-3-one diastereomer b] yielded a Ki of 251 nM.
CCCCCC1CCC2(CC1)OC(N1CCC3(CC1)OCc1ccccc13)=NC2=O (single isomer, unassigned; diastereomer b) [Example 129, 8-Pentyl-2-(1′H,3H-spiro[2-benzofuran-1,4′-piperidin]-1′-yl)-1-oxa-3-azaspiro[4.5]dec-2-en-4-one diastereomer b] showed a Ki of 158 nM.
In the case of O=C1N=C(N2CCC3(CC2)OCc2ccccc23)OC12C[C@@H]1OCCO[C@@H]1C2 (single isomer, unassigned; diastereomer b) [Example 145, 2′-(1′H,3H-Spiro[2-benzofuran-1,4′-piperidin]-1′-yl)-2,3,4a,5,7,7a-hexahydro-4′H-spiro[cyclopenta[b][1,4]dioxine-6,5′-[1,3]oxazol]-4′-one diastereomer b], the Ki is reported as 50.1 nM.
Molecule CCOC(=O)C1[C@H]2CC3(C[C@@H]12)OC(N1CCC2(CC1)OCc1ccccc12)=NC3=O (single isomer, unassigned; diastereomer b) [Example 149, Ethyl 4′-oxo-2′-(1′H,3H-spiro[2-benzofuran-1,4′-piperidin]-1′-yl)-4′H-spiro[bicyclo[3.1.0]hexane-3,5′-[1,3]oxazole]-6-carboxylate diastereomer b] has a Ki of 200 nM.
With CCCCC1OC(N2CCC3(CC2)OC(=O)c2ccccc23)=NC1=O (single isomer, unassigned; enantiomer a) [Example 5, 1′-[5-Butyl-4-oxo-4,5-dihydro-1,3-oxazol-2-yl]-3H-spiro[2-benzofuran-1,4′-piperidin]-3-one enantiomer A] the Ki was 251 nM.
O=C1N=C(N2CCC3(CC2)OCc2ccccc23)OC1CC1CCCC1 (single isomer, unassigned; enantiomer a) [Example 13, 5-(Cyclopentylmethyl)-2-(1′H,3H-spiro[2-benzofuran-1,4′-piperidin]-1′-yl)-1,3-oxazol-4(5H)-one enantiomer A] gave a Ki of 0.794 nM.
With O=C1OC2(CCN(C3=NC(=O)C(CC4CCCC4)O3)CC2)c2ccccc21 (single isomer, unassigned; enantiomer a) [Example 15, 1′-[5-(Cyclopentylmethyl)-4-oxo-4,5-dihydro-1,3-oxazol-2-yl]-3H-spiro[2-benzofuran-1,4′-piperidin]-3-one enantiomer A] the Ki was 2.51 nM.
With O=C1OC2(CCN(C3=NC(=O)C(Cc4ccccc4)O3)CC2)c2ccccc21 (single isomer, unassigned; enantiomer a) [Example 20, 1′-[5-Benzyl-4-oxo-4,5-dihydro-1,3-oxazol-2-yl]-3H-spiro[2-benzofuran-1,4′-piperidin]-3-one enantiomer A] the Ki was 251 nM.
CC1(Cc2ccccc2)OC(N2CCC3(CC2)OC(=O)c2ccccc23)=NC1=O (single isomer, unassigned; enantiomer a) [Example 72, 1′-[5-Benzyl-5-methyl-4-oxo-4,5-dihydro-1,3-oxazol-2-yl]-3H-spiro[2-benzofuran-1,4′-piperidin]-3-one enantiomer A] was tested, and the Ki was 25.1 nM.
For CC1(Cc2ccc(Cl)cc2)OC(N2CCC3(CC2)OC(=O)c2ccccc23)=NC1=O (single isomer, unassigned; enantiomer a) [Example 80, 1′-[5-(4-Chlorobenzyl)-5-methyl-4-oxo-4,5-dihydro-1,3-oxazol-2-yl]-3H-spiro[2-benzofuran-1,4′-piperidin]-3-one enantiomer A], the Ki was 20 nM.
Work on CCCCC1OC(N2CCC3(CC2)OC(=O)c2ccccc23)=NC1=O (single isomer, unassigned; enantiomer b) [Example 6, 1′-[5-Butyl-4-oxo-4,5-dihydro-1,3-oxazol-2-yl]-3H-spiro[2-benzofuran-1,4′-piperidin]-3-one enantiomer B] yielded a Ki of 20 nM.
For O=C1N=C(N2CCC3(CC2)OCc2ccccc23)OC1CC1CCCC1 (single isomer, unassigned; enantiomer b) [Example 14, 5-(Cyclopentylmethyl)-2-(1′H,3H-spiro[2-benzofuran-1,4′-piperidin]-1′-yl)-1,3-oxazol-4(5H)-one enantiomer B], the Ki was 2.51 nM.
O=C1OC2(CCN(C3=NC(=O)C(CC4CCCC4)O3)CC2)c2ccccc21 (single isomer, unassigned; enantiomer b) [Example 16, 1′-[5-(Cyclopentylmethyl)-4-oxo-4,5-dihydro-1,3-oxazol-2-yl]-3H-spiro[2-benzofuran-1,4′-piperidin]-3-one enantiomer B] was tested, and the Ki was 12.6 nM.
Molecule O=C1OC2(CCN(C3=NC(=O)C(Cc4ccccc4)O3)CC2)c2ccccc21 (single isomer, unassigned; enantiomer b) [Example 21, 1′-[5-Benzyl-4-oxo-4,5-dihydro-1,3-oxazol-2-yl]-3H-spiro[2-benzofuran-1,4′-piperidin]-3-one enantiomer B] has a Ki of 5.01 nM.
Work on CC1(Cc2ccccc2)OC(N2CCC3(CC2)OC(=O)c2ccccc23)=NC1=O (single isomer, unassigned; enantiomer b) [Example 73, 1′-[5-Benzyl-5-methyl-4-oxo-4,5-dihydro-1,3-oxazol-2-yl]-3H-spiro[2-benzofuran-1,4′-piperidin]-3-one enantiomer B] yielded a Ki of 251 nM.
Molecule CC1(Cc2ccc(Cl)cc2)OC(N2CCC3(CC2)OC(=O)c2ccccc23)=NC1=O (single isomer, unassigned; enantiomer b) [Example 81, 1′-[5-(4-Chlorobenzyl)-5-methyl-4-oxo-4,5-dihydro-1,3-oxazol-2-yl]-3H-spiro[2-benzofuran-1,4′-piperidin]-3-one enantiomer B] has a Ki of 501 nM.

Source: US9828385B2, “Spiro-oxazolones” (Hoffmann-La Roche Inc., priority 2014, dated 2017)
